In US10717716B2, “1,3,4-oxadiazole derivative compounds as histone deacetylase 6 inhibitor, and the pharmaceutical composition comprising the same” (Chong Kun Dang Pharmaceutical Corp., priority 2015, dated 2020):
Where two headings read alike, the source gives them in different places.

Biological target: T1, human recombinant HDAC6 (Homo sapiens, UniProt Q9UBN7)
T1 construct: purchased Calbiochem 382180
T1 sequence (Q9UBN7 1-1215): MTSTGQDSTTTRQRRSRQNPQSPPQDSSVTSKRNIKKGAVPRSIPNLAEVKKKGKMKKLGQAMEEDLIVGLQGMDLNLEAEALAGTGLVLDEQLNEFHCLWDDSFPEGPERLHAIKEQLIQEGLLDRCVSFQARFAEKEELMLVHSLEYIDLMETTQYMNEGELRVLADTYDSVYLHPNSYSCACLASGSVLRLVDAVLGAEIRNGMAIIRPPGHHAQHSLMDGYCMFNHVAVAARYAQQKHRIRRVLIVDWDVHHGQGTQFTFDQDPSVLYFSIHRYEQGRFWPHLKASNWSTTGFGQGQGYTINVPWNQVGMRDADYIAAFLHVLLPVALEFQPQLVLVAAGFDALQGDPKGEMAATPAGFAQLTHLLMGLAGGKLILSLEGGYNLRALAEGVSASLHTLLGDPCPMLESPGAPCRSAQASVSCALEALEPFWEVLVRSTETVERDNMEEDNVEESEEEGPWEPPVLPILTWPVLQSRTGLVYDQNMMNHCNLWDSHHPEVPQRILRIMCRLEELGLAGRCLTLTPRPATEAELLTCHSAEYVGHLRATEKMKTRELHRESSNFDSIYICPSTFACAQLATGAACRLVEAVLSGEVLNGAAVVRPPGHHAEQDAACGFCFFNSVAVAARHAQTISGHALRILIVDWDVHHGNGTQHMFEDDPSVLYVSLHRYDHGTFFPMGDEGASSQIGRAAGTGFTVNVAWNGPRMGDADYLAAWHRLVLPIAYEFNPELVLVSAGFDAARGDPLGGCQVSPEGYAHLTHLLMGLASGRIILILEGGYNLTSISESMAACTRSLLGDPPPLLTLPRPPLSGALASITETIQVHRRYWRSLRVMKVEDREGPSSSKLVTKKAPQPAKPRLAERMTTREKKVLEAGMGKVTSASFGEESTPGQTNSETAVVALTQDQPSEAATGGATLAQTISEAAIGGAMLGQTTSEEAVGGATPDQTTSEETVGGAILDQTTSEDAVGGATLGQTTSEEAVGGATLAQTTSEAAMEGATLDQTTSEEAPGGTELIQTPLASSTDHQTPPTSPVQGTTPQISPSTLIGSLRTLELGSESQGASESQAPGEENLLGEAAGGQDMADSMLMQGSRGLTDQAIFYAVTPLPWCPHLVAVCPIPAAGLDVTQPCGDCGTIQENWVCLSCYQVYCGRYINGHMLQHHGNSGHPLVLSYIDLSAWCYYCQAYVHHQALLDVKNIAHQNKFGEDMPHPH
Assay: HDAC6 enzyme activity inhibition assay (HDAC Fluorimetric Drug Discovery Kit)
Type: biochemical
Settings: for HDAC6 selectivity (fold): HDAC6 over HDAC1; for IC50: human recombinant HDAC6, same protocol as HDAC1
Outline: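 Fluorimetric deacetylase assay: 5-fold serial compound dilutions, 0.3 μg recombinant human enzyme (HDAC1 or HDAC6, same protocol), 10 μM Fluor de Lys-SIRT1 substrate, 60 min at 30 °C. Signal developed 30 min, measured at 360/460 nm; IC50 values derived.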

Row | SMILES | HDAC6 selectivity (fold) | IC50 (read-out: HDAC6) [nM] | IC50 (HDAC6 (nM)) [nM]
1 | CN(C)[C@H]1CCN(C(=O)N(Cc2ccc(-c3nnc(C(F)F)o3)cc2F)c2ccc(F)c(Cl)c2)C1 [Compound 21583, (S)—N-(3-chloro-4-fluorophenyl)-N-(4-(5-(difluoromethyl)-1,3,4-oxadiazol-2-yl)-2-fluorobenzyl)-3-(dimethylamino)pyrrolidine-1-carboxamide] | 833 | 12 | –
2 | O=C(Oc1ccccc1)N(Cc1ccc(-c2nnc(C(F)F)o2)cc1)c1ccccc1 [Compound 21569, Phenyl (4-(5-(difluoromethyl)-1,3,4-oxadiazol-2-yl)benzyl)(phenyl)carbamate] | 59 | – | 170
3 | CN1CCN(C(=O)N(Cc2ccc(-c3nnc(C(F)F)o3)cn2)c2ccc(F)cc2)CC1 [Compound 21600, N-((5-(5-(difluoromethyl)-1,3,4-oxadiazol-2-yl)pyridin-2-yl)methyl)-N-(4-fluorophenyl)-4-methylpiperazine-1-carboxamide] | 400 | 25 | –
4 | CCN1CCN(C(=O)N(Cc2ccc(-c3nnc(C(F)F)o3)cc2F)c2cccc(F)c2)CC1 [Compound 21884, N-(4-(5-(Difluoromethyl)-1,3,4-oxadiazol-2-yl)-2-fluorobenzyl)-4-ethyl-N-(3-fluorophenyl)piperazine-1-carboxamide] | 303 | 33 | –
5 | O=C(N1CCOCC1)N(Cc1ccc(-c2nnc(C(F)F)o2)cc1F)c1ccc(F)cc1 [Compound 21841, N-(4-(5-(difluoromethyl)-1,3,4-oxadiazol-2-yl)-2-fluorobenzyl)-N-(4-fluorophenyl)morpholine-4-carboxamide] | 382 | 26 | –
6 | O=C(N1CCS(=O)(=O)CC1)N(Cc1ccc(-c2nnc(C(F)F)o2)cc1F)c1ccc(CN2CCC(F)(F)C2)cc1 [Compound 21915, N-(4-(5-(difluoromethyl)-1,3,4-oxadiazol-2-yl)-2-fluorobenzyl)-N-(4-((3,3-difluoropyrrolidin-1-yl)methyl)phenyl)thiomorpholine-4-carboxamide 1,1-dioxide] | 62 | 160 | –
7 | CN(C)[C@@H]1CCN(C(=O)N(Cc2ccc(-c3nnc(C(F)F)o3)cc2F)c2ccc(F)c(Cl)c2)C1 [Compound 21584, (R)—N-(3-chloro-4-fluorophenyl)-N-(4-(5-(difluoromethyl)-1,3,4-oxadiazol-2-yl)-2-fluorobenzyl)-3-(dimethylamino)pyrrolidine-1-carboxamide] | 370 | 27 | –
8 | O=C(N1CCOCC1)N(Cc1ccc(-c2nnc(C(F)F)o2)cn1)c1cccc(F)c1 [Compound 21843, N-((5-(5-(difluoromethyl)-1,3,4-oxadiazol-2-yl)pyridin-2-yl)methyl)-N-(3-fluorophenyl) morpholine-4-carboxamide] | 461 | 22 | –
9 | CC(C)n1ncc2ccc(N(Cc3ccc(-c4nnc(C(F)F)o4)cc3F)C(=O)N3CCS(=O)(=O)CC3)cc21 [Compound 21812, N-(4-(5-(Difluoromethyl)-1,3,4-oxadiazol-2-yl)-2-fluorobenzyl)-N-(1-isopropyl-1H-indazol-6-yl)thiomorpholine-4-carboxamide 1,1-dioxide] | 94 | 107 | –
10 | COc1ccccc1N(Cc1ccc(-c2nnc(C(F)F)o2)cc1)C(=O)N1CCS(=O)(=O)CC1 [Compound 21474, N-(4-(5-(difluoromethyl)-1,3,4-oxadiazol-2-yl)benzyl)-N-(2-methoxyphenyl)thiomorpholine-4-carboxamide 1,1-dioxide] | 77 | 130 | –
11 | O=C(N1CCOCC1)N(Cc1ccc(-c2nnc(C(F)(F)F)o2)cc1)c1cccnc1 [Compound 21427, N-(pyridin-3-yl)-N-(4-(5-(trifluoromethyl)-1,3,4-oxadiazol-2-yl)benzyl)morpholine-4-carboxamide] | 79 | 126 | –
12 | O=C(NCCN1CCCN(Cc2ccccc2)CC1)N(Cc1ccc(-c2nnc(C(F)F)o2)cc1F)c1ccccc1 [Compound 22000, 3-(2-(4-Benzyl-1,4-diazepan-1-yl)ethyl)-1-(4-(5-(difluoromethyl)-1,3,4-oxadiazol-2-yl)-2-fluorobenzyl)-1-phenylurea] | 61 | 165 | –
13 | CN1CCC(c2ccc(N(Cc3ccc(-c4nnc(C(F)F)o4)cc3F)C(=O)N3CCS(=O)(=O)CC3)cc2)CC1 [Compound 21970, N-(4-(5-(difluoromethyl)-1,3,4-oxadiazol-2-yl)-2-fluorobenzyl)-N-(4-(1-methylpiperidin-4-yl)phenyl)thiomorpholine-4-carboxamide 1,1-dioxide] | 6 | 1550 | –
14 | O=C(N1CC2(COC2)C1)N(Cc1ccc(-c2nnc(C(F)F)o2)cc1F)c1ccc(F)c(Cl)c1 [Compound 21586, N-(3-chloro-4-fluorophenyl)-N-(4-(5-(difluoromethyl)-1,3,4-oxadiazol-2-yl)-2-fluorobenzyl)-2-oxa-6-azaspiro[3.3]heptane-6-carboxamide] | 476 | 21 | –
15 | O=C(N1CCS(=O)(=O)CC1)N(Cc1ccc(-c2nnc(C(F)(F)F)o2)cc1)C1CCCC1 [Compound 21371, N-cyclopentyl-N-(4-(5-(trifluoromethyl)-1,3,4-oxadiazol-2-yl)benzyl)thiomorpholine-4-carboxamide 1,1-dioxide] | 9 | 1090 | –
16 | CC(C)N(Cc1ccc(-c2nnc(C(F)(F)F)o2)cc1)C(=O)N1CCS(=O)(=O)CC1 [Compound 21397, N-isopropyl-N-(4-(5-(trifluoromethyl)-1,3,4-oxadiazol-2-yl)benzyl)thiomorpholine-4-carboxamide 1,1-dioxide] | 11 | 882 | –
17 | O=C(N1CCS(=O)(=O)CC1)N(Cc1ccccc1)Cc1ccc(-c2nnc(C(F)(F)F)o2)cc1 [Compound 21374, N-benzyl-N-(4-(5-(trifluoromethyl)-1,3,4-oxadiazol-2-yl)benzyl)thiomorpholine-4-carboxamide 1,1-dioxide] | 10 | 1010 | –
18 | CCN1CCN(C(=O)N(Cc2ccc(-c3nnc(C(F)(F)F)o3)cc2)c2ccccc2)CC1 [Compound 21346, 4-Ethyl-N-phenyl-N-(4-(5-(trifluoromethyl)-1,3,4-oxadiazol-2-yl)benzyl)piperazine-1-carboxamide] | 58 | 173 | –
19 | O=C(N1CCS(=O)(=O)CC1)N(Cc1ccc(-c2nnc(C(F)F)o2)cc1F)c1ccccc1 [Compound 21370, N-(4-(5-(difluoromethyl)-1,3,4-oxadiazol-2-yl)-2-fluorobenzyl)-N-phenylthiomorpholine-4-carboxamide 1,1-dioxide] | 400 | 25 | –
20 | Cn1ncc2ccc(-c3ccc(N(Cc4ccc(-c5nnc(C(F)F)o5)cc4)C(=O)N4CCS(=O)(=O)CC4)cc3)cc21 [Compound 21488, N-(4-(5-(difluoromethyl)-1,3,4-oxadiazol-2-yl)benzyl)-N-(4-(1-methyl-1H-indazol-6-yl)phenyl)thiomorpholine-4-carboxamide 1,1-dioxide] | 90 | 111 | –
21 | O=C(N1CCN(C2COC2)CC1)N(Cc1ccc(-c2nnc(C(F)F)o2)cc1)c1ccc(F)cc1 [Compound 21939, N-(4-(5-(Difluoromethyl)-1,3,4-oxadiazol-2-yl)benzyl)-N-(4-fluorophenyl)-4-(oxetan-3-yl)piperazine-1-carboxamide] | 62 | 161 | –
22 | CN1CCN(C(=O)N(Cc2ccc(-c3nnc(C(F)(F)F)o3)cn2)c2ccccc2F)CC1 [Compound 21634, N-(2-fluorophenyl)-4-methyl-N-((5-(5-(trifluoromethyl)-1,3,4-oxadiazol-2-yl)pyridin-2-yl)methyl)piperazine-1-carboxamide] | 83 | 120 | –
